Among the data in patent US8088780B2, “5,7-disubstituted thiazolo[4,5-D]pyrimidines for the selective inhibition of chemokine receptors” (AstraZeneca AB, priority 2005, dated 2012) are Ki values, retold here.

One assay addresses T1, CXCR2 (Homo sapiens, UniProt P25025).
T1 construct: kept under geneticin/G418 selection
T1 sequence (P25025 1-360): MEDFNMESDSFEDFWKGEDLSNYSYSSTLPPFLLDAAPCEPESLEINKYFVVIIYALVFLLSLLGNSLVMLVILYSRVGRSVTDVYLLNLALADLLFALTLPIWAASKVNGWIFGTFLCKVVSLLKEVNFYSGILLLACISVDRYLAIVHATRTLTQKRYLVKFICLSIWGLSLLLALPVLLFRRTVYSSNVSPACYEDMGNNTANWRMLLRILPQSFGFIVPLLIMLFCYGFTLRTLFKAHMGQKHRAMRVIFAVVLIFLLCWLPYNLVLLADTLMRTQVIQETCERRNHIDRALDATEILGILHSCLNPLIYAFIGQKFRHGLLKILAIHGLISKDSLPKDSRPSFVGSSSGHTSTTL
The assay is described as follows: [125I]-hIL-8 competition binding (SPA) on membranes of cells expressing human CXCR2. To be noted: receptor binding, [125I]-hIL-8, human CXCR2 membranes.

For another assay, the target named is T2, CX3CR1 (Homo sapiens, UniProt P49238).
T2 construct: expressed in transfected cells
T2 sequence (P49238 1-355): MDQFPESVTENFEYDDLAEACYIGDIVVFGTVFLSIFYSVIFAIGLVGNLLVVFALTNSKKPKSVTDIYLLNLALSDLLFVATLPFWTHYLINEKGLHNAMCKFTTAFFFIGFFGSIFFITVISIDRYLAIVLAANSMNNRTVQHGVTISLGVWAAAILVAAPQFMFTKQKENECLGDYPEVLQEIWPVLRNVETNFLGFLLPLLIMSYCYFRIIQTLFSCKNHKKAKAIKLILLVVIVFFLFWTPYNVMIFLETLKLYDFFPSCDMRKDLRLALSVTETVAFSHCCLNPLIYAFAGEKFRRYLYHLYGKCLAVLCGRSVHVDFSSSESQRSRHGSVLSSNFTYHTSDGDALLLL
The assay is described as follows: [125I]-fractalkine competition receptor binding assay on membranes of cells expressing hCX3CR1. Particulars: HEKS 293 hCX3CR1 membranes.

As usually defined, the Ki is a measure of affinity in units of concentration, obtained from inhibition or displacement. Low readings indicate higher affinity, high ones lower affinity.

Description for CX3CR1: The complete human CX3CR1 cDNA (GenBank accession number U20350) was extracted from human brain mRNA (Superscript, Life Technologies) and ligated into pCR-Blunt II TOPO vector (InVitrogen). The insert corresponding hCX3CR1 was isolated and further subcloned into pcDNA3.1zeo. Plasmid DNA was prepared using Plasmid Midi Kit (Qiagen). […] A stable clone was generated utilizing zeocin (500 μg/mL) and hygromycin (100 μg/mL) selection. For further applications the cells were maintained in Dulbecco's modified Eagle's medium/Ham's nutrient mix F12 (DMEM/F12) containing pyridoxine and supplemented with 10% (v/v) fetal bovine serum, 2 mM L-glutamine, 100 U/ml penicillin and 100 mg/ml streptomycin, 250 μg/mL zeocin and 100 μg/mL hygromycin.
Cells are grown at 37° C. and 5% CO2 and harvested at 60-80% confluence in buffer containing 10 mM Tris-HCl pH 7.4, 5 mM EDTA, 0.1 mg/mL bacitracin. The cells are centrifuged at 300×g for 10 min and the pellet is resuspended in harvesting buffer (10 mM Tris-HCl, pH 7.4, 5 mM ethylenediaminetetra-acetic acid (EDTA) and 0.1 mg/mL bacitracin), pooled and homogenised using a Dounce homogeniser. […]
Ten concentrations (2 points/log unit) of the test compounds were pre-dissolved in DMSO and added to reach a final concentration of 1% (v/v) DMSO. […] Scintillation cocktail was added and radioactivity was determined in a Packard 2500TR liquid scintillation counter.
Description for CXCR2: Cells expressing human CXCR2 obtained from AstraZeneca Charnwood are cultured in EMEM containing Glutamax and supplemented with 10% FBS (from PAA, Austria), 1% non-essential amino acids (NEAA), 100 U/mL penicillin and 100 μg/mL streptomycin (PEST) and 500 μg/mL geneticin/G418.
Cells are grown at 37° C. and 5% CO2 and harvested at 60-80% confluence in buffer containing 10 mM Tris-HCl pH 7.4, 5 mM EDTA, 0.1 mg/mL bacitracin. The cells are centrifuged at 300×g for 10 min and the pellet is resuspended in harvesting buffer (10 mM Tris-HCl, pH 7.4, 5 mM ethylenediaminetetra-acetic acid (EDTA) and 0.1 mg/mL bacitracin), pooled and homogenised using a Dounce homogeniser. The homogenate is centrifuged in 48000×g for 10 min and resuspended in harvesting buffer using Ultra-Turrax T8. Membrane aliquots are stored at −80° C.
The non-specific binding is determined in the presence of 500 nM unlabelled hIL-8. The agonist hIL-8 (a concentration-response curve from 3 pM to 30 nM), is used as reference compound at each test occasion. […] The binding reaction is started by addition of 140 μL membrane-SPA preparation, and the samples are incubated in dark at RT for 4 h.

Consider `CCC(Sc1nc(N[C@@H](CO)CC(C)C)c2sc(=O)[nH]c2n1)c1ccccc1` (stereo partly shown), for which the Ki at CXCR2 came to 651 nM; at CX3CR1, 5.8 nM.
As for `CC(C)C[C@H](CO)Nc1nc(SCc2ccccc2)nc2[nH]c(=O)sc12` [5-(benzylthio)-7-{[(1R)-1-(hydroxymethyl)-3-methylbutyl]amino}[1,3]thiazolo[4,5-d]pyrimidin-2(3H)-one], the Ki on CXCR2 worked out at 79 nM; on CX3CR1, 54 nM.
